In patent publication US20020128228A1, “Compositions and methods for the treatment of cancer” (priority 2000, published 2002):
Read-outs that look alike come from different tables or passages of the source.

Tests used:
[1] = after intravenous administration; cited from earlier work
[2] = single dose schedule, cited from earlier work

Compound	recurrence (malignant melanoma; single treatment with thalidomide continued for one year)	metastases and adenopathy (malignant melanoma; thalidomide alone, maximum 200 mg/d, after dacarbazine was discontinued, additional 3 months)	half life distribution (plasma, biexponential decline) [1] [h]	nausea and vomiting ([2]; dosages up to 700 mg/m^2)	nausea and vomiting ([2]; doses higher than 700 mg/m^2)
O=C1CCC(N2C(=O)c3ccccc3C2=O)C(=O)N1 (racemic) [thalidomide, 2-(2,6-dioxo-3-piperidinyl)-1H-isoindole-1,3(2H)-dione]	only recurrence in the leg	resolution of the metastases continued and virtually no adenopathy was detected	–	–	–
Cn1nnc2c(C(N)=O)ncn2c1=O [temozolomide, 8-carbamoyl-3-methyl-imidazo-[5.1.d]-1,2,3,5-tetrazin-4(3H)-one]	–	–	1.8	mild	Grade 4 toxicity
